According to publication PMC9873280, “In silico identification and biological evaluation of a selective MAP4K4 inhibitor against pancreatic cancer” (Journal of Enzyme Inhibition and Medicinal Chemistry, 2023):

molecular target: T1, MAP4K7 (Homo sapiens, UniProt Q9UKE5); experiment: kinase profiling panel; format: biochemical; settings: read-out: % inhibition at 150 nM
T1 construct: gene TNIK; recombinant kinase of a commercial 81-kinase panel
T1 sequence (Q9UKE5 whole entry): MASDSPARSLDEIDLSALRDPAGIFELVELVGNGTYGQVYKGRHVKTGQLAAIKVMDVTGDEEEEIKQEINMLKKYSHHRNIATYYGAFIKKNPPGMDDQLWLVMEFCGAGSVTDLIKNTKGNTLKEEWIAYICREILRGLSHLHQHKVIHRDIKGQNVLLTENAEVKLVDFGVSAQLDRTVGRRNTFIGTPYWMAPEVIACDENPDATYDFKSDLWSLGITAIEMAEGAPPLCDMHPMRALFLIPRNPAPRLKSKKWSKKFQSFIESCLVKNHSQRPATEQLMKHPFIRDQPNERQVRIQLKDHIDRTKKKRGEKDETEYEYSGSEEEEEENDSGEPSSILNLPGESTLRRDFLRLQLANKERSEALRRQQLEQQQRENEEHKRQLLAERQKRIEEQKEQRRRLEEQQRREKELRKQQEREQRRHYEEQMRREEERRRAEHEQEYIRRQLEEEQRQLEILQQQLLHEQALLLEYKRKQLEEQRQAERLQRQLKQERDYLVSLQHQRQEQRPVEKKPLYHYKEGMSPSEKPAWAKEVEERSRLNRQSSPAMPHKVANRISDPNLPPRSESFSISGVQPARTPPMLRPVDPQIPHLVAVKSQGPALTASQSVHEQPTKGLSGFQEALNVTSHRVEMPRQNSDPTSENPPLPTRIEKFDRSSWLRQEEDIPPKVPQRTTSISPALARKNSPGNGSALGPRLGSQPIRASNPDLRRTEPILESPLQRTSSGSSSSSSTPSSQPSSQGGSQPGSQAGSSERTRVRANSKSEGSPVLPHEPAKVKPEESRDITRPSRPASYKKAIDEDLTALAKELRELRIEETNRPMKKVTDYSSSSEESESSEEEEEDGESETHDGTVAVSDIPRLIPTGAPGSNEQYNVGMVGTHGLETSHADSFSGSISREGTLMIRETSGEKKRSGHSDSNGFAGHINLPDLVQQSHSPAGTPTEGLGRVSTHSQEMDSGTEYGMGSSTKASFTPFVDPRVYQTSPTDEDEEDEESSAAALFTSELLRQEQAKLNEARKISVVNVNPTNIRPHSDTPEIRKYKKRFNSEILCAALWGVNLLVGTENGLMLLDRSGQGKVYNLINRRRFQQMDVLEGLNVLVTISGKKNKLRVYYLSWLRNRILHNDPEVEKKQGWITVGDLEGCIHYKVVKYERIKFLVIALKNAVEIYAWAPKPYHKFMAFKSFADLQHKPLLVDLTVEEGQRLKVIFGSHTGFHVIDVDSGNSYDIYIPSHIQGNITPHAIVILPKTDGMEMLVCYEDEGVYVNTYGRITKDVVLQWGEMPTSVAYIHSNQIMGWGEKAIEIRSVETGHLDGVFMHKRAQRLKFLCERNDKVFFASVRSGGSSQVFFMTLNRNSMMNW

inhibition at 0.15 µM [%]	Compound
27	CSc1ccc(CNC(=O)c2ccc3c(c2)NC(=O)C(=Cc2cccc(Cl)c2)O3)cc1 [F389-0746]

molecular target: T2, MAP4K6 (Homo sapiens, UniProt Q8N4C8); experiment: kinase profiling panel; format: biochemical; settings: read-out: % inhibition at 150 nM
T2 construct: gene MINK1; recombinant kinase of a commercial 81-kinase panel
T2 sequence (Q8N4C8 whole entry): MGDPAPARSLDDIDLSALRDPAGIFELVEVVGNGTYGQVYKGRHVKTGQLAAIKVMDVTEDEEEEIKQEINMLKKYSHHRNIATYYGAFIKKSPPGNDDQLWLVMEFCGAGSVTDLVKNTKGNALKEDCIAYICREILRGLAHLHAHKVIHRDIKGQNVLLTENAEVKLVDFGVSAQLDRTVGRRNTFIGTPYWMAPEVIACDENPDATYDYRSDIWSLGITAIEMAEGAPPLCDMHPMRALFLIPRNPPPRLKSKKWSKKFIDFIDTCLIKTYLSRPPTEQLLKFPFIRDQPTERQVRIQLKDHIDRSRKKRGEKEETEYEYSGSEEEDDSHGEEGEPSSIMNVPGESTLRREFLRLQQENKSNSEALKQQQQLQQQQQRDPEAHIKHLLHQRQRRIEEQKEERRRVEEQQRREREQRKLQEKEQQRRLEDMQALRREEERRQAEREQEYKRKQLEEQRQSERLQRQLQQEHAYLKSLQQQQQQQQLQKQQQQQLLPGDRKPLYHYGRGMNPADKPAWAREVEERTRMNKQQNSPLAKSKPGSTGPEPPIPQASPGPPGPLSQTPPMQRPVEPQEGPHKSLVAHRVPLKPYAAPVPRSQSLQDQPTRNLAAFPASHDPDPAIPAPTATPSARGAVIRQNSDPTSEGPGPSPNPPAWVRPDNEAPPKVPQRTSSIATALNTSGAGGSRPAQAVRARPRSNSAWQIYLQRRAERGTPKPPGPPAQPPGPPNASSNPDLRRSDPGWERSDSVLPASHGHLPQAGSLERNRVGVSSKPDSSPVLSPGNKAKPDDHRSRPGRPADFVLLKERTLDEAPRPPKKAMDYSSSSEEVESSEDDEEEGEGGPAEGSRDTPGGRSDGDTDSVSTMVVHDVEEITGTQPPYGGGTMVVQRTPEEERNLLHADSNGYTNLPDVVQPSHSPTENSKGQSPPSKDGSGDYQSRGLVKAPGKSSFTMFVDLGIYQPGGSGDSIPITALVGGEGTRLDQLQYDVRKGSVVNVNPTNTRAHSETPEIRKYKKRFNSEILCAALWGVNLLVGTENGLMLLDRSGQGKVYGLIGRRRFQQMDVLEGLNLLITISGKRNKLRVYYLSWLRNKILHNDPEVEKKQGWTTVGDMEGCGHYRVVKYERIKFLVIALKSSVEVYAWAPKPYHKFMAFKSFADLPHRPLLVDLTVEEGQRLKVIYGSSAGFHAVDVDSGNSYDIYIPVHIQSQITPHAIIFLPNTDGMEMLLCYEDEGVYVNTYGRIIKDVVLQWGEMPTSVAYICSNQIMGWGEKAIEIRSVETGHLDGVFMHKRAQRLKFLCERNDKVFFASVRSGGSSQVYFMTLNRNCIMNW

inhibition at 0.15 µM [%]	Compound
44	CSc1ccc(CNC(=O)c2ccc3c(c2)NC(=O)C(=Cc2cccc(Cl)c2)O3)cc1 [F389-0746]

molecular target: T3, MAP4K4 (Homo sapiens, UniProt O95819); experiment: Z'LYTE kinase activity assay; format: biochemical; settings: 1 h incubation with ATP
T3 construct: recombinant kinase of the ThermoFisher SelectScreen service
T3 sequence (O95819 2-1239): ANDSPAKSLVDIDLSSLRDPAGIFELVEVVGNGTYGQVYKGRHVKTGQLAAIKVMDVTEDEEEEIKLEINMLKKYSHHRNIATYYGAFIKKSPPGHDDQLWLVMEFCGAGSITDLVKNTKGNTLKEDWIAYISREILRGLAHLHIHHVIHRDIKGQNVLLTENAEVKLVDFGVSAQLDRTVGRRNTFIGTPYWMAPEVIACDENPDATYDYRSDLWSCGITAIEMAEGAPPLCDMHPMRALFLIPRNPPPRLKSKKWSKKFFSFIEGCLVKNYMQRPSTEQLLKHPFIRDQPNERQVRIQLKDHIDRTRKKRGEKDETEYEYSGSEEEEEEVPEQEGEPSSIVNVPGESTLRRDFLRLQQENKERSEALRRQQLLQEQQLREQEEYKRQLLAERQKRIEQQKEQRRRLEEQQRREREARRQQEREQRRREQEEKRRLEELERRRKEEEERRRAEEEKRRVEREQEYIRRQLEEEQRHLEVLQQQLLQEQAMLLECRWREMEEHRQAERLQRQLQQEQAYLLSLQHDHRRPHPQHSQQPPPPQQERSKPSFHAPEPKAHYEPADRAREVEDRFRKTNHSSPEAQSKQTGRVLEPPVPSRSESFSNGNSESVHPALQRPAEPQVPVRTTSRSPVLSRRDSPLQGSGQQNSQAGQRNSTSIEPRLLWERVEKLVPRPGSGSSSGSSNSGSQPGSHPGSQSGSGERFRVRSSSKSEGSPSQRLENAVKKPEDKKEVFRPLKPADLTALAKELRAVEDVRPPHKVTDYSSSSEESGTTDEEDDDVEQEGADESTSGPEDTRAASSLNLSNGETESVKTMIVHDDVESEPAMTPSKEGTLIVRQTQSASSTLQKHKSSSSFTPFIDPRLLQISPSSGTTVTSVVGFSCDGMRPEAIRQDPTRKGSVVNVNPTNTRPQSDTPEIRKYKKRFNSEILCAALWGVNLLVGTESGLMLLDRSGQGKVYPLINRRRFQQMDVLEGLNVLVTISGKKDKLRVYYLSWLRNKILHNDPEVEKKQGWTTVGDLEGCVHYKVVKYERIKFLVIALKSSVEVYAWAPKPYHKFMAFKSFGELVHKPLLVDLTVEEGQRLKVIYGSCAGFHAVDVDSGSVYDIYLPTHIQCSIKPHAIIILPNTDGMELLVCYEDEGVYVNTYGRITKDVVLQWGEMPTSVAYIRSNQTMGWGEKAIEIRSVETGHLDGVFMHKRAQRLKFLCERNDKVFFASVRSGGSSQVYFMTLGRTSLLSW

IC50 [nM]	Compound
276	CN1CCN(CCNC(=O)c2ccc3c(c2)NC(=O)C(=Cc2ccc(Cl)cc2)O3)CC1 [F389-0167]
337	CCOc1ccc(CNC(=O)c2ccc3c(c2)NC(=O)C(=Cc2ccc(Cl)cc2)O3)cc1OC [F389-0169]
334	O=C1Nc2cc(C(=O)NCc3cccc(F)c3)ccc2OC1=Cc1ccc(Cl)cc1 [F389-0183]
189	COc1ccc(CCNC(=O)c2ccc3c(c2)NC(=O)C(=Cc2cccc(Cl)c2)O3)cc1OC [F389-0604]
384	CCOc1ccc(CNC(=O)c2ccc3c(c2)NC(=O)C(=Cc2cccc(Cl)c2)O3)cc1OC [F389-0745]
121	CSc1ccc(CNC(=O)c2ccc3c(c2)NC(=O)C(=Cc2cccc(Cl)c2)O3)cc1 [F389-0746]

molecular target: T3, MAP4K4; experiment: Z'LYTE kinase activity assay; format: biochemical; settings: not given
Source text: Z'LYTE kinase activity assay on MAP4K4

inhibition at 1 µM [%]	Compound
68	COc1ccccc1CNC(=O)c1ccc2c(c1)NC(=O)C(=Cc1ccc(Cl)cc1)O2 [F389-0092]
70	COc1cccc(CNC(=O)c2ccc3c(c2)NC(=O)C(=Cc2ccc(Cl)cc2)O3)c1 [F389-0093]
72	O=C1Nc2cc(C(=O)NCc3ccccc3F)ccc2OC1=Cc1ccc(Cl)cc1 [F389-0161]
67	CCOc1cc(CNC(=O)c2ccc3c(c2)NC(=O)C(=Cc2ccc(Cl)cc2)O3)ccc1OC [F389-0164]
57	O=C1Nc2cc(C(=O)NCc3ccccc3Cl)ccc2OC1=Cc1cccc(Cl)c1 [F389-0592]
59	COc1cccc(CNC(=O)c2ccc3c(c2)NC(=O)C(=Cc2cccc(Cl)c2)O3)c1 [F389-0669]
57	CCOc1ccccc1CNC(=O)c1ccc2c(c1)NC(=O)C(=Cc1cccc(Cl)c1)O2 [F389-0738]
67	CCOc1ccc(CNC(=O)c2ccc3c(c2)NC(=O)C(=Cc2cccc(Cl)c2)O3)cc1 [F389-0750]
61	O=C1Nc2cc(C(=O)NCc3cccc(F)c3)ccc2OC1=Cc1cccc(Cl)c1 [F389-0759]

molecular target: T4, MAP4K5 (Homo sapiens, UniProt Q9Y4K4); experiment: kinase profiling panel; format: biochemical; settings: read-out: % inhibition at 150 nM
T4 construct: recombinant kinase of a commercial 81-kinase panel
T4 sequence (Q9Y4K4 whole entry): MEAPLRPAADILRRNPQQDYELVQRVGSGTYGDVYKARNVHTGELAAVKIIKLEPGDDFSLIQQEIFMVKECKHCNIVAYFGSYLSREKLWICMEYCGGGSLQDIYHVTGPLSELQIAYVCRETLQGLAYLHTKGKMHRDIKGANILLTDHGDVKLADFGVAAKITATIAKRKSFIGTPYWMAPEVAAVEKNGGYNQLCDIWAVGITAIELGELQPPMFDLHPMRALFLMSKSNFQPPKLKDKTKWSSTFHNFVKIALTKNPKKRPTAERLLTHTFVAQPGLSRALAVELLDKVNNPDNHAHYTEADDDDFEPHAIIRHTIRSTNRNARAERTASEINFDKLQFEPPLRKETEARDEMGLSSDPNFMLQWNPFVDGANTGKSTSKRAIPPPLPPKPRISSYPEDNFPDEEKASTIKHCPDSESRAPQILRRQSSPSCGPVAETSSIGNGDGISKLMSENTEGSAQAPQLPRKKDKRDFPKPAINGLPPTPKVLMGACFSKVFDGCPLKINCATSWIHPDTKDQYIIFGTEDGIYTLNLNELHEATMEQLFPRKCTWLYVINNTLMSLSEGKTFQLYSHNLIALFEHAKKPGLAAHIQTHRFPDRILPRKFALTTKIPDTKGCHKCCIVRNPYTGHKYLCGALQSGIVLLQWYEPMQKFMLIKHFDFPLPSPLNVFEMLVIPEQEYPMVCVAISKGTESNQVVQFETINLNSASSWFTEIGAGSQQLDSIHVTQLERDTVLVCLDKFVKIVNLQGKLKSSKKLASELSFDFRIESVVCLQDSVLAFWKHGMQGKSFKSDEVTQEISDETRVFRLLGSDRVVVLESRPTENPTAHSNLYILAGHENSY

inhibition at 0.15 µM [%]	Compound
17	CSc1ccc(CNC(=O)c2ccc3c(c2)NC(=O)C(=Cc2cccc(Cl)c2)O3)cc1 [F389-0746]
